The results in this text go back to BindingDB's records for doi:10.1021/jm050280z (Uppsala University, 2005).

Starred links: 1 amine or outer side, 2 acyl side, 3 side chain; linkers in the order of their positions; H or OH if unused. Non-standard residues stand in square brackets, D forms with d. Residues, ends and D or L forms follow the SMILES beside them. X2 = O=C(c1cc(CN[*:1])cc(Cc2ccc(O)cc2)c1)[*:2]; X1 = O=C(c1cc(Cc2ccc(O)cc2)cc(N[*:1])c1)[*:2]

This assay deals with Type-2 angiotensin II receptor (Sus scrofa). The experiment in a line: Binding affinity for angiotensin II receptor, type 2 in pig uterus myometrium using [125I]-Ang II as radioligand, in pH 7.4 Tris-HCl buffer for 1.5 hr at 25 degree C.
As a reminder, the Ki is the dissociation constant of the complex between target and ligand, obtained from inhibition or displacement. Lower therefore signals higher affinity. In the case of `CC(C)[C@H](NC(=O)[C@H](CCCNC(=N)N)NC(=O)[C@@H](N)CC(=O)O)C(=O)NCc1cc(Cc2ccc(O)cc2)cc(C(=O)N[C@@H](Cc2cnc[nH]2)C(=O)N2CCC[C@H]2C(=O)N[C@@H](Cc2ccccc2)C(=O)O)c1` [(S)-3-Amino-N-((S)-1-{1-[(S)-3-[2-[2-((S)-(S)-1-carboxy-2-phenyl-ethylcarbamoyl)-pyrrolidin-1-yl]-1-(3H-imidazol-4-ylmethyl)-2-oxo-ethylcarbamoyl]-5-(4-hydroxy-benzyl)-benzylcarbamoyl]-2-methyl-propylcarbamoyl}-4-guanidino-butyl)-succinamic acid] (H-DRV[X2]HPF-OH), the Ki was determined as 1.85 nM. With `CC(C)[C@H](NC(=O)[C@H](CCCNC(=N)N)NC(=O)[C@@H](N)CC(=O)O)C(=O)Nc1cc(Cc2ccc(O)cc2)cc(C(=O)N[C@@H](Cc2cnc[nH]2)C(=O)N2CCC[C@H]2C(=O)N[C@@H](Cc2ccccc2)C(=O)O)c1` [(S)-3-Amino-N-((S)-1-{(S)-1-[(S)-3-[2-[2-((S)-(S)-1-carboxy-2-phenyl-ethylcarbamoyl)-pyrrolidin-1-yl]-1-(3H-imidazol-4-ylmethyl)-2-oxo-ethylcarbamoyl]-5-(4-hydroxy-benzyl)-phenylcarbamoyl]-2-methyl-propylcarbamoyl}-4-guanidino-butyl)-succinamic acid] (H-DRV[X1]HPF-OH) the figure was 9.8 nM. With `N=C(N)NCCC[C@H](NC(=O)[C@@H](N)CC(=O)O)C(=O)NCc1cc(Cc2ccc(O)cc2)cc(C(=O)N[C@@H](Cc2cnc[nH]2)C(=O)N2CCC[C@H]2C(=O)N[C@@H](Cc2ccccc2)C(=O)O)c1` [(S)-3-Amino-N-{(S)-1-[3-[(S)-2-[2-((S)-(S)-1-carboxy-2-phenyl-ethylcarbamoyl)-pyrrolidin-1-yl]-1-(3H-imidazol-4-ylmethyl)-2-oxo-ethylcarbamoyl]-5-(4-hydroxy-benzyl)-benzylcarbamoyl]-4-guanidino-butyl}-succinamic acid] (H-DR[X2]HPF-OH) the figure was 10.1 nM; with `N=C(N)NCCC[C@H](NC(=O)[C@@H](N)CC(=O)O)C(=O)Nc1cc(Cc2ccc(O)cc2)cc(C(=O)N[C@@H](Cc2cnc[nH]2)C(=O)N2CCC[C@H]2C(=O)N[C@@H](Cc2ccccc2)C(=O)O)c1` [(S)-3-Amino-N-{(S)-1-[3-[(S)-2-[2-((S)-(S)-1-carboxy-2-phenyl-ethylcarbamoyl)-pyrrolidin-1-yl]-1-(3H-imidazol-4-ylmethyl)-2-oxo-ethylcarbamoyl]-5-(4-hydroxy-benzyl)-phenylcarbamoyl]-4-guanidino-butyl}-succinamic acid] (H-DR[X1]HPF-OH), 41.3 nM.
